The values that follow come from patent publication US20100029752A1, “NOVEL COMPOUNDS, PHARMACEUTICAL COMPOSITIONS CONTAINING SAME, AND METHODS OF USE FOR SAME” (priority 2005, published 2010).

In brackets after ≈: the same amount, converted by molar mass. Read-outs that look alike come from different tables or passages of the source.

Assay type in all cases: cell-based
The subject of test [1] is MCF-7 human breast cancer cells. Description: XTT cytotoxicity assay (M / MCF7). To be noted: MCF-7 cells, 72 hours. Here is the method:
The XTT assay is a non-radioactive alternative for the [^51Cr] release cytotoxicity assay. XTT is a tetrazolium salt that is reduced to a formazan dye only by metabolically active, viable cells. The reduction of XTT is measured spectrophotometrically as OD490-OD650. To measure the cytotoxicity of specific compounds against cancer cells, 9×10^3 MCF-7 human breast cancer cells, obtained from the American Type Culture Collection are plated per well in 96 well plates in DMEM medium with 10% fetal bovine serum, insulin, penicillin, and streptomycin. Following overnight culture at 37° C. and 5% CO2, the compounds to be tested, dissolved in DMSO, are added to the wells in 1 μl volume at the following concentrations: 80, 40, 20, 10, 5, 2.5, 1.25, and 0.625 μg/ml in triplicate. Additional concentrations are tested if required. 1 μl of DMSO is added to triplicate wells are the vehicle control. C75 is run at 40, 20, […], and 5 μg/ml in triplicate as positive controls. After 72 hours of incubation, cells are incubated for 4 hours with the XTT reagent as per manufacturer's instructions (Cell Proliferation Kit 11 (XTT) Roche). Plates are read at OD490 and OD650 on a Molecular Devices SpectraMax Plus Spectrophotometer. Three wells containing the XTT reagent without cells serve as the plate blank. XTT data are reported as OD490-OD650. Averages and standard error of the mean are computed using SOFTmax Pro software ([…]). The IC50 for the compounds is defined as the concentration of drug leading to a 50% reduction in OD490-OD650 compared to controls. The OD490-OD650 are computed by the SOFTmax PRO software (Molecular Devices) for each compound concentration. IC50 is calculated by linear regression, plotting the FAS activity as percent of control versus drug concentrations. Linear regression, best-fit line, r^2, and 95% confidence intervals are determined using Prism Version 3.0 (Graph Pad Software).
For orientation: Tetrazolium dyes change colour on reduction, which living cells bring about.

The test system of the next test is OV. Description: XTT cytotoxicity assay (OV). To be noted: (OV) cells. Here is the method: The XTT assay is a non-radioactive alternative for the [^51Cr] release cytotoxicity assay. XTT is a tetrazolium salt that is reduced to a formazan dye only by metabolically active, viable cells. The reduction of XTT is measured spectrophotometrically as OD490-OD650. After 72 hours of incubation, cells are incubated for 4 hours with the XTT reagent as per manufacturer's instructions (Cell Proliferation Kit 11 (XTT) Roche). Plates are read at OD490 and OD650 on a Molecular Devices SpectraMax Plus Spectrophotometer. Three wells containing the XTT reagent without cells serve as the plate blank. XTT data are reported as OD490-OD650. Averages and standard error of the mean are computed using SOFTmax Pro software (Molecular Dynamics). The IC50 for the compounds is defined as the concentration of drug leading to a 50% reduction in OD490-OD650 compared to controls. The OD490-OD650 are computed by the SOFTmax PRO software (Molecular Devices) for each compound concentration. IC50 is calculated by linear regression, plotting the FAS activity as percent of control versus drug concentrations. Linear regression, best-fit line, r^2, and 95% confidence intervals are determined using Prism Version 3.0 (Graph Pad Software).

For test [2], the system named is MCF-7 human breast cancer cells. The test is described as follows: Crystal violet cell growth assay. To be noted: MCF7, MCF-7 cells, 72 hours, read-out: Cr. Violet (IC50). The procedure: The crystal violet assay measures cell growth but not cytotoxicity. This assay employs crystal violet staining of fixed cells in 96-well plates with subsequent solubilization and measurement of OD490 on a spectrophotometer. The OD490 corresponds to cell growth per unit time measured. Cells are treated with the compounds of interest or vehicle controls and IC50 for each compound is computed.
To measure the cytotoxicity of specific compounds against cancer cells, 5×10^4 MCF-7 human breast cancer cells, obtained from the American Type Culture Collection are plated per well in 24 well plates in DMEM medium with 10% fetal bovine serum, penicillin, and streptomycin. Following overnight culture at 37° C. and 5% CO2, the compounds to be tested, dissolved in DMSO, are added to the wells in 1 μl volume at the following concentrations: 50, 40, 30, 20, and 10 μg/ml in triplicate. Additional concentrations are tested if required. 1 μl of DMSO is added to triplicate wells are the vehicle control. C75 is run at 10, and 5 μg/ml in triplicate as positive controls.
After 72 hours of incubation, cells are stained with 0.5 ml of Crystal Violet stain (0.5% in 25% methanol) in each well. After 10 minutes, wells are rinsed, air dried, and then solubilized with 0.5 ml 10% sodium dodecylsulfate with shaking for 2 hours. Following transfer of 100 μl from each well to a 96-well plate, plates are read at OD490 on a Molecular Devices SpectraMax Plus Spectrophotometer Average OD490 values are computed using SOFTmax Pro Software (Molecular Devices) and IC50 values are determined by linear regression analysis using Prism version 3.02 (Graph Pad Software, San Diego).

For test [3], the system named is Enterococcus faecalis (ATCC # 29212). Description: Broth microdilution MIC, E. faecalis. To be noted: for MIC: Enterococcus faecalis, ATCC29212. Here is the method:
A broth microdilution assay is used to assess the antimicrobial activity of the compounds. […] Microorganisms tested include Staphylococcus aureus (ATCC # 29213), Enterococcus faecalis (ATCC # 29212), Pseudomonas aeruginosa (ATCC # 27853), and Escherichia coli (ATCC # 25922). The assay is performed in two growth media, Mueller Hinton Broth and Trypticase Soy Broth. A blood (Tsoy/5% sheep blood) agar plate is inoculated from frozen stocks maintained in T soy broth containing 10% glycerol and incubated overnight at 37° C. Colonies are suspended in sterile broth so that the turbidity matches the turbidity of a 0.5 McFarland standard. The inoculum is diluted 1:10 in sterile broth (Mueller Hinton or Trypticase soy) and 195 ul is dispensed per well of a 96-well plate. The compounds to be tested, dissolved in DMSO, are added to the wells in 5 ul volume at the following concentrations: 25, 12.5, 6.25, 3.125, 1.56 and 0.78 ug/ml in duplicate. Additional concentrations are tested if required. 5 ul of DMSO added to duplicate wells are the vehicle control. Serial dilutions of positive control compounds, vancomycin (E. faecalis and S. aureus) and tobramycin (E. coli and P. aeruginosa), are included in each run. After 24 hours of incubation at 37° C., plates are read at OD600 on a Molecular Devices SpectraMax Plus Spectrophotometer. Average OD600 values are computed using SOFTmax Pro Software (Molecular Devices) and MIC values are determined by linear regression analysis using Prism version 3.02 (Graph Pad Software, San Diego). The MIC is defined as the concentration of compound required to produce an OD600 reading equivalent to 10% of the vehicle control reading.
(In general: In broth dilution the organism is exposed to a series of concentrations in liquid medium.)

Setting [4] is: Mueller Hinton Broth, read-out: EF/MH (MIC).
[5] abbreviates: Trypticase Soy Broth, read-out: EF/Tsoy (MIC).

As usually defined, the IC50 is the concentration at which inhibition is half-maximal. With `COC(=O)c1sc(C(=O)O)cc1O`, the IC50 (in test [1]; with OV; in test [2]) was more than 80 µg/mL throughout. Also, in test [3] (setting [4]), the MIC was 101 µg/mL (≈ 500 µM). Also, the “EF/Tsoy (MIC)” value in test [3] (Trypticase Soy Broth) was “Neg”.

For `CCCCCCCCNC(=O)c1cc(O)c(C(=O)OC)s1`, the results for the 50% inhibitory concentration (IC50) (in test [1]; with OV; in test [2]) were 47.5 µg/mL (≈ 152 µM), 37.1 µg/mL (≈ 118 µM) and 38.8 µg/mL (≈ 124 µM), respectively. For the same compound, the “EF/MH (MIC)” value in test [3] (Mueller Hinton Broth) is “Neg”. Further, in test [3] (Trypticase Soy Broth), the “EF/Tsoy (MIC)” value is reported as “Neg”.

`C=CCNC(=O)c1cc(O)c(C(=O)OC)s1`: the IC50 (in test [1]; in the test on OV; in test [2]) was more than 80 µg/mL throughout. The MIC in test [3] (setting [4]) is 88 µg/mL (≈ 365 µM); in test [3] (setting [5]) it was 134 µg/mL (≈ 555 µM).

For `CCCCCCCCNNC(=O)c1cc(O)c(C(=O)OC)s1`, the figures for the IC50 (in test [1]; with OV; in test [2]) were 73.3 µg/mL (≈ 223 µM), 77.1 µg/mL (≈ 235 µM) and 31.7 µg/mL (≈ 96.5 µM), respectively.

`COC(=O)c1sc(C(=O)NNc2ccc(Cl)cc2)cc1O`: the IC50 in test [1] is more than 80 µg/mL; in the test with OV it was 50 ± 5 µg/mL (≈ 153 µM); in test [2], 18.1 ± 4.4 µg/mL (≈ 55.4 µM). The “EF/MH (MIC)” value in test [3] (Mueller Hinton Broth) is listed as “Neg”. Moreover, the “EF/Tsoy (MIC)” value in test [3] (Trypticase Soy Broth) was “Neg”.

`CCCCCCCCNC(=O)c1cc(O)cs1`: the IC50 in test [1] was 9.9 µg/mL (≈ 38.8 µM); in the test on OV it was 9.5 µg/mL (≈ 37.2 µM); in test [2] it was 8.5 ± 2.1 µg/mL (≈ 33.3 µM). Also, in test [3] (setting [5]), the MIC was 123 µg/mL (≈ 482 µM). For the same compound, in test [3] (Mueller Hinton Broth), the “EF/MH (MIC)” value was “Neg”.
